From patent publication US20240139207A1, “METHODS FOR TREATING PULMONARY HYPERTENSION” (United Therapeutics Corporation, priority 2022, published 2024)

System: patients with pulmonary arterial hypertension
Experiment: Phase 4 open-label 16-week study: clinical parameters, risk stratification, patient-reported outcomes
Format: in vivo, human
Source text: The secondary endpoints of this study included measurements in: changes in prostanoid adverse events (AEs), echocardiograms, change in 6-minute walk distance (6MWD), change in Borg dyspnea score, change in World Health Organization (WHO) functional class (FC), change in serum N-terminal pro-brain natriuretic peptide (NT-proBNP) levels, impact of pulmonary hypertension on a person's life (health-related quality of life), and treatment satisfaction. Specifically, this study sought to measure the percentage of subjects that improved in each of the following individual four clinical parameters at Week 16 (6MWD, NT-proBNP, WHO FC, right atrial area) to a lower risk stratum, as defined by the 2015 ESC/ERS guidelines (Gailè et al., DOI: 10.1183/13993003.01032-2015), compared to baseline measurements. An additional endpoint was determining the percentage of subjects that meet each of the following four individual clinical parameters at Week 16 in the low risk category, as defined by 2015 ESC/ERS guidelines: 6MWD>440 meters, […].
Based on the 2015 ESC/ERS Guidelines, specific hemodynamic inclusion criteria included a mean pulmonary arterial pressure ≥25 mmHg, pulmonary artery wedge pressure or left ventricular end-diastolic pressure ≤15 mmHg, and pulmonary vascular resistance >3 Wood units, in the absence of unrepaired congenital heart disease. Other key inclusion criteria were World Health Organization functional class (FC) II or III, 6-minute walk distance (6MWD)≥250 m, and a REVEAL 2.0 risk score ≤9 (Benza et al. 2021, DOI: https://doi.org/10.1016/j.chest.2020.08.2069). Patients could be receiving up to two oral PAH background therapies if taken at a stable dose for ≥30 days prior to baseline. As this study focused on the addition of a new therapy rather than the replacement of one therapy by another therapy, participants were eligible regardless of the number of pulmonary arterial hypertension background therapies (0, 1, or 2) they were receiving at baseline. […] Baseline assessments were collected up to 14 days prior to initiation of parenteral treprostinil, and included hemodynamics via echocardiogram and RHC, FC, N-terminal-pro brain natriuretic peptide (NT-proBNP), 6MWD, and medication history. Of note, historical RHC data could be used for baseline assessments if performed up to 180 days prior to initiating parenteral treprostinil. Echocardiograms were uploaded and stored in a central repository and evaluated by an independent central reader in accordance with the American Society of Echocardiography Guidelines (Bossone et al., DOI: 10.1016/j.echo.2012.10.009).
Once patients reached at least 20 ng/kg/min and were deemed suitable for transition based on physician assessment, they were transitioned at Week 2,4, or 8 to oral treprostinil via cross-titration in an inpatient or outpatient setting over 1-21 days. All participants still receiving parenteral treprostinil at Week 8 began transitioning to oral treprostinil regardless of their parenteral treprostinil dose unless deemed unsuitable for transition by their clinician. Before transition, 6MWD, WHO FC, NT-proBNP, and echocardiography parameters were assessed.
The primary endpoint was the percentage of patients who achieved an oral treprostinil TDD of at least 12 mg (0.171 mg/kg for patients <70 kg) at Week 16. Secondary endpoints included change from baseline to Week 16 in risk strata and clinical parameters, where baseline values were collected within 14 days prior to parenteral treprostinil initiation. Changes in risk strata for FC, NT-proBNP, 6MWD, and right atrial (RA) area were assessed using the 2015 ESC/ERS Guidelines, which categorizes risk for each determinant as low, intermediate, and high (Galiè et al., 2016). Clinical parameters of interest included FC, NT-proBNP, 6MWD, echocardiography parameters, REVEAL Lite 2 score (Benza et al., 2021), and Borg Dyspnea Score (Borg, 1982, DOI: https://doi.org/10.1249/00005768-198205000-00012). […]

[1] = 2015 ESC/ERS risk strata, baseline to Week 16

How did the “percentage of patients who shifted to a lower risk stratum for 6MWD” value [1] turn out when CCCCC[C@H](O)CC[C@@H]1[C@H]2Cc3cccc(OCC(=O)O)c3C[C@H]2C[C@H]1O [oral treprostinil, treprostinil] was run?
The value was 15%.

What about the “percentage of patients who shifted to a lower risk stratum for FC” value [1] of the same compound?
The value was 39%.

What about the “percentage of patients who shifted to a lower risk stratum for NT-proBNP” value [1] of the same compound?
The value was 39%.

And the “percentage of patients who shifted to a lower risk stratum for RA area” value [1]?
The value was 35%.

And the “6MWD, median” value (Week 16)?
The value was 395 m.

What about the “Borg Dyspnea Score, median” value (Week 16) of the same compound?
The value was 3.

What about the “NT-proBNP, median” value (Week 16) of the same compound?
Its value is 212 ng/L.

What about the “REVEAL Lite 2 score, median” value (Week 16) of the same compound?
Its value is 3.5.

What about the “percentage of patients classified as FC I” value (Week 16 (0% at baseline)) of the same compound?
The value was 46%.

What about the “Borg Dyspnea Score, median change from baseline” value (baseline to Week 16) of the same compound?
Its value is −1.

What about the “NT-proBNP, median change from baseline” value (baseline to Week 16) of the same compound?
Its value is -134 ng/L.

And the PAHSS domains (baseline to Week 16)?
Its PAHSS domains is “improvements were seen in most domains”.

And the “REVEAL Lite 2 score, median change from baseline” value (baseline to Week 16)?
Its value is −1.

And the “emPHasis- scores (quality of life), median change from baseline” value (baseline to Week 16)?
The value was −3.

What about the “patients improving in WHO FC” value (baseline to Week 16) of the same compound?
The value was 68%.

And the “patients worsening in WHO FC” value (baseline to Week 16)?
Its value is “one”.
